According to patent US20090099195A1 (ASTRAZENECA AB, priority 2007, published 2009):

Target: T1, hP2X3 (human Purinergic P2X receptors subtype 3), clone B (Homo sapiens, UniProt P56373)
T1 sequence (P56373 1-397): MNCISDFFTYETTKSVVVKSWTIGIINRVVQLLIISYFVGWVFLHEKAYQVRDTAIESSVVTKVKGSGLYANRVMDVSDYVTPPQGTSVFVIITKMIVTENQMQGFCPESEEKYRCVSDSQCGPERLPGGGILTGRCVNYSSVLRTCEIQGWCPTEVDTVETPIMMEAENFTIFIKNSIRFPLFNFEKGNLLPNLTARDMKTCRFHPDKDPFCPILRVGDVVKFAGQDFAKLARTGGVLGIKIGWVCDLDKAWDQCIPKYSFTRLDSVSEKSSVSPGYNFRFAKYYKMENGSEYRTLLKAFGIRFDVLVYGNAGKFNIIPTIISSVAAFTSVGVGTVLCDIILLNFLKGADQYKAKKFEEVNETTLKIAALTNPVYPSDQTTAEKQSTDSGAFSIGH
Test: hP2X3 FLIPR calcium (Fluo-4) antagonist assay, clone B
Settings: Human P2X3 FLIPR Clone B IC50 (nM), RLE cells expressing hP2X3 clone B (NM_002559); agonist 500 nM α,β-methylene-ATP

`CC(=O)NC1CCN(c2nc(NC(C)(C)Cc3ccc(Cl)cc3)c3c(n2)C(=O)N(C(C)C)C3)C1` (stereo not shown) [Example 62, N-[1-(4-{[2-(4-chlorophenyl)-1,1-dimethylethyl]amino}-6-isopropyl-7-oxo-6,7-dihydro-5H-pyrrolo[3,4-d]pyrimidin-2-yl)pyrrolidin-3-yl]acetamide] gave an IC50 of 340 nM.
With `CC(C)N1Cc2c(NC(C)(C)Cc3ccc(Cl)cc3)nc(N3CCN(CC(=O)N(C)C)CC3)nc2C1=O` [Example 63, 2-[4-(4-{[2-(4-chlorophenyl)-1,1-dimethylethyl]amino}-6-isopropyl-7-oxo-6,7-dihydro-5H-pyrrolo[3,4-d]pyrimidin-2-yl)piperazin-1-yl]-N,N-dimethylacetamide] the IC50 was 9200 nM.
With `CCN1CCN(c2nc(NC(C)(C)Cc3ccc(Cl)cc3)c3c(n2)C(=O)N(C(C)C)C3)CC1` [Example 64, 4-{[2-(4-chlorophenyl)-1,1-dimethylethyl]amino}-2-(4-ethylpiperazin-1-yl)-6-isopropyl-5,6-dihydro-7H-pyrrolo[3,4-d]pyrimidin-7-one] the IC50 was 3500 nM.
In the case of `CC(=O)N1CCCN(c2nc(NC(C)(C)Cc3ccc(Cl)cc3)c3c(n2)C(=O)N(C(C)C)C3)CC1` [Example 65, 2-(4-acetyl-1,4-diazepan-1-yl)-4-{[2-(4-chlorophenyl)-1,1-dimethylethyl]amino}-6-isopropyl-5,6-dihydro-7H-pyrrolo[3,4-d]pyrimidin-7-one], the IC50 is reported as 420 nM.
With `CC(C)N1Cc2c(NC(C)(C)Cc3ccc(Cl)cc3)nc(NCCCN3CCCC3=O)nc2C1=O` [Example 66, 4-{[2-(4-chlorophenyl)-1,1-dimethylethyl]amino}-6-isopropyl-2-{[3-(2-oxopyrrolidin-1-yl)propyl]amino}-5,6-dihydro-7H-pyrrolo[3,4-d]pyrimidin-7-one] the IC50 was 1400 nM.
Molecule `CC(=O)N(C)C1CCN(c2nc(NC(C)(C)Cc3ccc(Cl)cc3)c3c(n2)C(=O)N(C(C)C)C3)C1` (stereo not shown) [Example 67, N-[1-(4-{[2-(4-chlorophenyl)-1,1-dimethylethyl]amino}-6-isopropyl-7-oxo-6,7-dihydro-5H-pyrrolo[3,4-d]pyrimidin-2-yl)pyrrolidin-3-yl]-N-methylacetamide] has an IC50 of 450 nM.
`CC(C)N1Cc2c(NC(C)(C)Cc3ccc(Cl)cc3)nc(N3CCNC(=O)CC3)nc2C1=O` [Example 68, 4-{[2-(4-chlorophenyl)-1,1-dimethylethyl]amino}-6-isopropyl-2-(5-oxo-1,4-diazepan-1-yl)-5,6-dihydro-7H-pyrrolo[3,4-d]pyrimidin-7-one] showed an IC50 of 350 nM.
Molecule `CC(C)N1Cc2c(NC(C)(C)Cc3ccc(Cl)cc3)nc(NCCN3CCCC3=O)nc2C1=O` [Example 70, 4-{[2-(4-chlorophenyl)-1,1-dimethylethyl]amino}-6-isopropyl-2-{[2-(2-oxopyrrolidin-1-yl)ethyl]amino}-5,6-dihydro-7H-pyrrolo[3,4-d]pyrimidin-7-one] has an IC50 of 780 nM.
`CCC(=O)N1CCN(c2nc(NC(C)(C)Cc3ccc(Cl)cc3)c3c(n2)C(=O)N(C(C)C)C3)CC1` [Example 71, 4-{[2-(4-chlorophenyl)-1,1-dimethylethyl]amino}-6-isopropyl-2-(4-propionylpiperazin-1-yl)-5,6-dihydro-7H-pyrrolo[3,4-d]pyrimidin-7-one] showed an IC50 of 130 nM.
`CC(C)CN1Cc2c(NC(c3ccccc3)c3ccccc3)nc(N3CCOCC3)nc2C1=O` [Example 73, 4-(Benzhydryl-amino)-6-isobutyl-2-morpholin-4-yl-5,6-dihydro-pyrrolo[3,4-d]pyrimidin-7-one] was tested, and the IC50 was 3800 nM.
`O=C1c2nc(N3CCOCC3)nc(NC(c3ccccc3)c3ccccc3)c2CN1C1CC1` [Example 74, 4-(Benzhydryl-amino)-6-cyclopropyl-2-morpholin-4-yl-5,6-dihydro-pyrrolo[3,4-d]pyrimidin-7-one] showed an IC50 of 4300 nM.
Molecule `O=C1c2nc(N3CCOCC3)nc(NC(c3ccccc3)c3ccccc3)c2CN1C1CCCC1` [Example 75, 4-(Benzhydryl-amino)-6-cyclopentyl-2-morpholin-4-yl-5,6-dihydro-pyrrolo[3,4-d]pyrimidin-7-one] has an IC50 of over 30000 nM.
`Cc1ccc(C(Nc2nc(N3CCOCC3)nc3c2CN(C(C)C)C3=O)c2ccccc2)cc1` (stereo not shown) [Example 76, 6-isopropyl-2-morpholin-4-yl-[(phenyl-p-tolyl-methyl)-amino]-5,6-dihydro-pyrrolo[3,4-d]pyrimidin-7-one] was tested, and the IC50 was 230 nM.
`CC(C)N1Cc2c(NC(c3ccccc3)c3ccc(Cl)cc3)nc(N3CCOCC3)nc2C1=O` (stereo not shown) [Example 77, 4-{[(4-Chloro-phenyl)-phenyl-methyl]-amino}-6-isopropyl-2-morpholin-4-yl-5,6-dihydro-pyrrolo[3,4-d]pyrimidin-7-one] was tested, and the IC50 was 260 nM.
Molecule `CCN1CCN(c2nc(NC(c3ccccc3)c3ccccc3)c3c(n2)C(=O)N(C(C)C)C3)CC1` [Example 78, 4-(Benzhydryl-amino)-2-(4-ethyl-piperazin-1-yl)-6-isopropyl-5,6-dihydro-pyrrolo[3,4-d]pyrimidin-7-one] has an IC50 of 400 nM.
Molecule `CC(C)N1Cc2c(NC(c3ccccc3)c3ccccc3)nc(N3CCN(C(=O)C4CC4)CC3)nc2C1=O` [Example 79, 4-(Benzhydryl-amino)-2-(4-cyclopropanecarbonyl-piperazin-1-yl)-6-isopropyl-5,6-dihydro-pyrrolo[3,4-d]pyrimidin-7-one] has an IC50 of 130 nM.
`CC(C)C(=O)N1CCN(c2nc(NC(c3ccccc3)c3ccccc3)c3c(n2)C(=O)N(C(C)C)C3)CC1` [Example 80, 4-(Benzhydryl-amino)-2-(4-isobutyryl-piperazin-1-yl)-6-isopropyl-5,6-dihydro-pyrrolo[3,4-d]pyrimidin-7-one] showed an IC50 of 190 nM.
In the case of `CC(C)N1Cc2c(NC(c3ccccc3)c3ccccc3)nc(NCc3ccccc3)nc2C1=O` [Example 84, 4-(Benzhydryl-amino)-2-benzylamino-6-isopropyl-5,6-dihydro-pyrrolo[3,4-d]pyrimidin-7-one], the IC50 is reported as 830 nM.
In the case of `CC1CN(c2nc(NC(c3ccccc3)c3ccccc3)c3c(n2)C(=O)N(C(C)C)C3)CC(C)O1` (stereo not shown) [Example 86, 4-(Benzhydryl-amino)-2-(2,6-dimethyl-morpholin-4-yl)-6-isopropyl-5,6-dihydro-pyrrolo[3,4-d]pyrimidin-7-one], the IC50 is reported as 280 nM.
Work on `CCC(=O)N1CCN(c2nc(NC(c3ccccc3)c3ccccc3)c3c(n2)C(=O)N(C(C)C)C3)CC1` [Example 87, 4-(Benzhydryl-amino)-6-isopropyl-2-(4-propionyl-piperazin-1-yl)-5,6-dihydro-pyrrolo[3,4-d]pyrimidin-7-one] yielded an IC50 of 240 nM.
Work on `CC(=O)N1CCN(c2nc(NC(Cc3ccccc3)c3ccccc3)c3c(n2)C(=O)N(C(C)C)C3)CC1` (stereo not shown) [Example 88, 2-(4-Acetyl-piperazin-1-yl)-4-(1,2-diphenyl-ethylamino)-6-isopropyl-5,6-dihydro-pyrrolo[3,4-d]pyrimidin-7-one] yielded an IC50 of 1800 nM.
`CCN(CC)c1nc(NC(c2ccccc2)c2ccccc2)c2c(n1)C(=O)N(C(C)C)C2` [Example 89, 4-(Benzhydryl-amino)-2-diethylamino-6-isopropyl-5,6-dihydro-pyrrolo[3,4-d]pyrimidin-7-one] showed an IC50 of 6200 nM.
`CC(=O)N1CCN(c2nc(NCC(c3ccccc3)c3ccccc3)c3c(n2)C(=O)N(C(C)C)C3)CC1` [Example 91, 2-(4-acetylpiperazin-1-yl)-4-[(2,2-diphenylethyl)amino]-6-isopropyl-5,6-dihydro-7H-pyrrolo[3,4-d]pyrimidin-7-one] gave an IC50 of 100 nM.
Work on `CC(=O)NCCNc1nc(NC(c2ccccc2)c2ccccc2)c2c(n1)C(=O)N(C(C)C)C2` [Example 93, N-{2-[4-(Benzhydryl-amino)-6-isopropyl-7-oxo-6,7-dihydro-5H-pyrrolo[3,4-d]pyrimidin-2-ylamino]-ethyl}-acetamide] yielded an IC50 of 290 nM.
`CC(C)N1Cc2c(NC(c3ccccc3)c3ccccc3)nc(NCc3cccnc3)nc2C1=O` [Example 94, 4-(Benzhydryl-amino)-6-isopropyl-2-[(pyridin-3-ylmethyl)-amino]-5,6-dihydro-pyrrolo[3,4-d]pyrimidin-7-one] gave an IC50 of 250 nM.
In the case of `CC(=O)N1CCN(c2nc3c(c(N(Cc4ccccc4)Cc4ccccc4)n2)CN(C(C)C)C3=O)CC1` [Example 95, 2-(4-Acetyl-piperazin-1-yl)-4-dibenzylamino-6-isopropyl-5,6-dihydro-pyrrolo[3,4-d]-pyrimidin-7-one], the IC50 is reported as 430 nM.
`CC(C)N1Cc2c(NC(c3ccccc3)c3ccccc3)nc(NCCN(C)C)nc2C1=O` [Example 97, 4-(Benzhydryl-amino)-2-(2-dimethylamino-ethylamino)-6-isopropyl-5,6-dihydro-pyrrolo[3,4-d]pyrimidin-7-one] gave an IC50 of 230 nM.
`COCCNc1nc(NC(c2ccccc2)c2ccc(C)cc2)c2c(n1)C(=O)N(C(C)C)C2` (stereo not shown) [Example 98, 6-isopropyl-2-(2-methoxy-ethylamino)-4-[(phenyl-p-tolyl-methyl)-amino]-5,6-dihydro-pyrrolo[3,4-d]-pyrimidin-7-one] gave an IC50 of 210 nM.
Molecule `CC(C)N1Cc2c(NC(c3ccccc3)c3ccccc3)nc(NCCO)nc2C1=O` [Example 100] has an IC50 of 1100 nM.
For `CCN1CCN(c2nc(NC(c3ccccc3)c3ccc(C)cc3)c3c(n2)C(=O)N(C(C)C)C3)CC1` (stereo not shown) [Example 101, 2-(4-Ethyl-piperazin-1-yl)-6-isopropyl-4-[(phenyl-p-tolyl-methyl)-amino]-5,6-dihydro-pyrrolo[3,4-d]-pyrimidin-7-one], the IC50 was 150 nM.
In the case of `Cc1ccc(C(Nc2nc(N3CCN(C(C)C)CC3)nc3c2CN(C(C)C)C3=O)c2ccccc2)cc1` (stereo not shown) [Example 102, 2-(4-isopropyl-piperazin-1-yl)-6-isopropyl-4-[(phenyl-p-tolyl-methyl)-amino]-5,6-dihydro-pyrrolo[3,4-d]-pyrimidin-7-one], the IC50 is reported as 200 nM.
